Broadly, the EC50 is the concentration giving half of the maximal effect. Read a high EC50 as a less potent agent.

Molecules are shown by their SMILES.

21 compounds from BindingDB's records for doi:10.1016/j.bmcl.2009.09.081 (Lexicon Pharmaceuticals, 2009) can be followed below.

A short description of the assay: Inhibition of deoxycytidine kinase-mediated arabinoside C-induced cytotoxicity.
For the compound `NC(=O)c1ccc(-c2cccc(S(=O)(=O)N[C@H]3CC[C@H](n4cc(F)c(N)nc4=O)C3)c2)cc1` [3'-(N-((1S,3S)-3-(4-amino-5-fluoro-2-oxopyrimidin-1(2H)-yl)cyclopentyl)sulfamoyl)biphenyl-4-carboxamide], the EC50 was found to be 5.9 µM. In turn, `Nc1nc(=O)n([C@H]2CC[C@H](NS(=O)(=O)c3cccc(-c4ccc(Cl)cc4Cl)c3)C2)cc1F` [N-((1S,3S)-3-(4-amino-5-fluoro-2-oxopyrimidin-1(2H)-yl)cyclopentyl)-2',4'-dichlorobiphenyl-3-sulfonamide] came in with an EC50 of 0.53 µM. Then `Nc1nc(=O)n([C@H]2CC[C@H](NS(=O)(=O)c3cccc(-c4ccccc4Cl)c3)C2)cc1F` [N-((1S,3S)-3-(4-amino-5-fluoro-2-oxopyrimidin-1(2H)-yl)cyclopentyl)-2'-chlorobiphenyl-3-sulfonamide], with 0.43 µM; and `Nc1nc(=O)n([C@H]2CC[C@H](NC(=O)c3cccc(-c4cccc(Cl)c4)c3)C2)cc1F` [N-((1S,3S)-3-(4-amino-5-fluoro-2-oxopyrimidin-1(2H)-yl)cyclopentyl)-3'-chlorobiphenyl-3-carboxamide], with 0.18 µM. Under `Nc1nc(=O)n([C@H]2CC[C@H](NS(=O)(=O)c3cccc(-c4cccc(Cl)c4)c3)C2)cc1F` [N-((1S,3S)-3-(4-amino-5-fluoro-2-oxopyrimidin-1(2H)-yl)cyclopentyl)-3'-chlorobiphenyl-3-sulfonamide] stands 0.36 µM. Under `Nc1nc(=O)n([C@H]2CC[C@H](NS(=O)(=O)c3cccc(Br)c3)C2)cc1F` [N-((1S,3S)-3-(4-amino-5-fluoro-2-oxopyrimidin-1(2H)-yl)cyclopentyl)-3-bromobenzenesulfonamide] stands 2.8 µM; under `CS(=O)(=O)c1ccc(-c2cccc(S(=O)(=O)N[C@H]3CC[C@H](n4cc(F)c(N)nc4=O)C3)c2)cc1` [N-((1S,3S)-3-(4-amino-5-fluoro-2-oxopyrimidin-1(2H)-yl)cyclopentyl)-4'-(methylsulfonyl)biphenyl-3-sulfonamide], 1.8 µM. As for `Cc1cc(Cl)ccc1-c1cccc(C(=O)N[C@H]2CC[C@H](n3cc(F)c(N)nc3=O)C2)c1` [N-((1S,3S)-3-(4-amino-5-fluoro-2-oxopyrimidin-1(2H)-yl)cyclopentyl)-4'-chloro-2'-methylbiphenyl-3-carboxamide], it took 0.17 µM to reach a half-maximal effect (EC50). Under `Cc1cc(Cl)ccc1-c1cccc(S(=O)(=O)N[C@H]2CC[C@H](n3cc(F)c(N)nc3=O)C2)c1` [N-((1S,3S)-3-(4-amino-5-fluoro-2-oxopyrimidin-1(2H)-yl)cyclopentyl)-4'-chloro-2'-methylbiphenyl-3-sulfonamide] stands 0.29 µM; under `Nc1nc(=O)n([C@H]2CC[C@H](NC(=O)c3cccc(-c4ccc(Cl)cc4)c3)C2)cc1F` [N-((1S,3S)-3-(4-amino-5-fluoro-2-oxopyrimidin-1(2H)-yl)cyclopentyl)-4'-chlorobiphenyl-3-carboxamide], 0.27 µM; under `Nc1nc(=O)n([C@H]2CC[C@H](NS(=O)(=O)c3cccc(-c4ccc(Cl)cc4)c3)C2)cc1F` [N-((1S,3S)-3-(4-amino-5-fluoro-2-oxopyrimidin-1(2H)-yl)cyclopentyl)-4'-chlorobiphenyl-3-sulfonamide], 0.24 µM. `N#Cc1ccc(-c2cccc(S(=O)(=O)N[C@H]3CC[C@H](n4cc(F)c(N)nc4=O)C3)c2)cc1` [N-((1S,3S)-3-(4-amino-5-fluoro-2-oxopyrimidin-1(2H)-yl)cyclopentyl)-4'-cyanobiphenyl-3-sulfonamide] registered a concentration for a half-maximal effect (EC50) of 0.39 µM.

Turning to `COc1ccc(-c2cccc(C(=O)N[C@H]3CC[C@H](n4cc(F)c(N)nc4=O)C3)c2)cc1` [N-((1S,3S)-3-(4-amino-5-fluoro-2-oxopyrimidin-1(2H)-yl)cyclopentyl)-4'-methoxybiphenyl-3-carboxamide], the EC50 stood at 0.1 µM. Then `COc1ccc(-c2cccc(S(=O)(=O)N[C@H]3CC[C@H](n4cc(F)c(N)nc4=O)C3)c2)cc1` [N-((1S,3S)-3-(4-amino-5-fluoro-2-oxopyrimidin-1(2H)-yl)cyclopentyl)-4'-methoxybiphenyl-3-sulfonamide], with 0.3 µM; and `Cc1ccc(-c2cccc(S(=O)(=O)N[C@H]3CC[C@H](n4cc(F)c(N)nc4=O)C3)c2)cc1` [N-((1S,3S)-3-(4-amino-5-fluoro-2-oxopyrimidin-1(2H)-yl)cyclopentyl)-4'-methylbiphenyl-3-sulfonamide], with 0.5 µM; and `Nc1nc(=O)n([C@H]2CC[C@H](NS(=O)(=O)c3ccc(Br)cc3)C2)cc1F` [N-((1S,3S)-3-(4-amino-5-fluoro-2-oxopyrimidin-1(2H)-yl)cyclopentyl)-4-bromobenzenesulfonamide], with 11 µM. Then `Nc1nc(=O)n([C@H]2CC[C@H](NS(=O)(=O)c3ccc([N+](=O)[O-])cc3)C2)cc1F` [N-((1S,3S)-3-(4-amino-5-fluoro-2-oxopyrimidin-1(2H)-yl)cyclopentyl)-4-nitrobenzenesulfonamide], with 16 µM; and `Nc1nc(=O)n([C@H]2CC[C@H](NS(=O)(=O)c3ccccc3)C2)cc1F` [N-((1S,3S)-3-(4-amino-5-fluoro-2-oxopyrimidin-1(2H)-yl)cyclopentyl)benzenesulfonamide], with 17 µM; and `Nc1nc(=O)n([C@H]2CC[C@H](NC(=O)c3cccc(-c4ccccc4)c3)C2)cc1F` [N-((1S,3S)-3-(4-amino-5-fluoro-2-oxopyrimidin-1(2H)-yl)cyclopentyl)biphenyl-3-carboxamide], with 0.91 µM.

`Nc1nc(=O)n([C@H]2CC[C@H](NS(=O)(=O)c3cccc(-c4ccccc4)c3)C2)cc1F` [N-((1S,3S)-3-(4-amino-5-fluoro-2-oxopyrimidin-1(2H)-yl)cyclopentyl)biphenyl-3-sulfonamide] returned an EC50 of 0.6 µM.

Consider `Nc1nc(=O)n([C@H]2CC[C@H](NS(=O)(=O)c3ccc(-c4ccccc4)cc3)C2)cc1F` [N-((1S,3S)-3-(4-amino-5-fluoro-2-oxopyrimidin-1(2H)-yl)cyclopentyl)biphenyl-4-sulfonamide], for which a half-maximal effect (EC50) was put at 5.5 µM.
